Test results published in patent US8263754B2, “Amphiphiles for protein solubilization and stabilization” (Wisconsin Alumni Research Foundation, priority 2008, dated 2012).

Tests used:
[1] = target: bovine rhodopsin (Bos taurus, UniProt P02699); conditions: cited from earlier work
[2] = tested on: LHI-RC superassembly in Rhodobacter capsulatus membranes; conditions: for extraction of LHI-RC superassembly from R. capsulatus membranes: solubilized protein, optical spectroscopy
Source text: These complexes, normally embedded in the bacterial membrane, are highly pigmented and several outcomes from an assay are possible, including no degradation, partial degradation or complete degradation upon solubilization, or no solubilization. Thus, graded comparative evaluations could be obtained for a set of candidates such as the amphiphiles described herein.
In the engineered strain of R. capsulatus employed, the photosynthetic unit was comprised of a very labile LHI complex and a more resilient RC complex. An ideal amphiphile for this system will extract the intact LHI-RC superassembly from a bacterial membrane preparation and maintain the natural interactions among the components. Amphiphiles with a more disruptive effect will dissociate and denature LHI, leaving only intact RC, and even harsher amphiphiles will cause RC degradation. Each of these various outcomes can be assessed unambiguously via optical spectroscopy (FIG. 2 inset).
Measurements. The starting material for the screening protocols and stability measurements included specialized photosynthetic membranes from an engineered strain of Rhodobacter (R.) capsulatus, U43[pUHTM86Bgl]
To begin the solubilization and purification process, frozen aliquots of R. capsulatus membranes were thawed, homogenized, and equilibrated to 32° C. for 30 minutes. […] For subsequent experiments, the amphiphiles were evaluated at 10-fold CMC during the solubilization step.
The membrane samples were allowed to incubate with the amphiphile for 30 minutes at 32° C. The solubilized material was then separated from the membrane debris in an ultracentrifuge at 315,000×g at 4° C. for 30 minutes. […] After a UV-Vis-nearIR absorption spectrum was recorded, the resuspended pellet was discarded. […] The tubes were then incubated and inverted for 1 hour at 4° C.
Once binding was complete, samples were loaded onto resin-retaining spin columns (e.g., emptied His Spin Trap™ columns; GE Healthcare). The columns were then inserted into a 2 mL microcentrifuge tube to retain the filtered solution during centrifugation. […] Finally, protein was eluted into a fresh microcentrifuge tube with three 0.2 mL elution buffer aliquots (this buffer was identical to binding buffer with the addition of 1 M imidazole).
The R. capsulatus LHI-RC complexes extracted and purified by this procedure contain large numbers of cofactors that have absorptions at distinct wavelengths, and each component of the LHI-RC superassembly has a different inherent stability outside the lipid bilayer. The solubilization protocol outlined above therefore provides a multifaceted assessment of the efficacy of conventional detergents and novel amphiphiles. UV-Vis absorption spectroscopy data obtained at various stages of the protocol allow one to determine which protein components have degraded at these stages. […] The disruption potential was measured as the yield of superassembly extracted during solubilization (or, alternatively and more precisely, as the absence of superassembly in the pellet from the spin following solubilization).
The stabilizing propensity was determined from the spectra of the purified protein. An amphiphile was judged to be mild and stabilizing if it allowed the purification of fully intact LHI-RC superassembly (dominant absorption band at 875 nm). […] An amphiphile was judged to be of intermediate strength if it allowed for the purification of fully intact RC with damaged or missing LHI (dominant absorption at 800 nm with a shoulder at 875 nm; damaged LHI still bound to RC absorbs at 760 nm).
First, solubilization (illustrated in “STEP 1” of FIG. 12) denotes the ability of a surfactant to penetrate, integrate and disrupt a lipid bilayer.

[3] = Critical micelle concentration (CMC) by dye solubilization (Orange OT or DPH); assay type: physicochemical; conditions: for critical micelle concentration (CMC): aqueous solubilization of Orange OT; for CMC / CMC (%): determined by DPH (diphenylhexatriene) or Orange OT
Source text: Aqueous solubilization of Orange OT was used to determine critical micelle concentrations (CMC). […] Facile self-association of these amphiphiles under these conditions may be hindered by the hydrophilicity and/or steric bulk of the triglucoside and dimaltoside headgroups.
The Critical Micelle Concentrations (CMCs) of compounds of the invention can be determined by standard techniques known to those of skill in the art. For example, CMCs of the carbohydrate-based amphiphiles described herein can be determined by monitoring uptake of a dye (e.g., Orange OT or 1,6-diphenylhexatriene) with increasing detergent concentration, monitored by UV-visible or fluorescence spectroscopy.

[4] = target: T1, bacteriorhodopsin (bR) (Halobacterium salinarum, UniProt P02945); conditions: cited from earlier work
T1 sequence (P02945 14-262): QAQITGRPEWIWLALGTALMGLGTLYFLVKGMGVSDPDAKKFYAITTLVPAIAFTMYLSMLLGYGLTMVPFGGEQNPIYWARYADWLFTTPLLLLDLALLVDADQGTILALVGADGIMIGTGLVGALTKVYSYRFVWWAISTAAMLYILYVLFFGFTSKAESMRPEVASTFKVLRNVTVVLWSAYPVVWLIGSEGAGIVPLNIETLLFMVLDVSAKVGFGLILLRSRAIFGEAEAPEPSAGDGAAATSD

[5] = tested on: T2, LHI-RC superassembly; test: Stability over time of solubilized, purified LHI-RC superassembly (A875/A680 ratio); parameters: species or system Rhodobacter capsulatus; conditions: room temperature, 875 nm/680 nm absorption ratio over two to three weeks
T2 construct: Starting with protein complexes in their native lipid bilayer; made in house; host or cells: Rhodobacter capsulatus U43[pUHTM86Bgl], intracytoplasmic membranes (strain lacks LHII)
Method: FIG. 3. To monitor the ability of micelles of DDM, TPA-2, and MPA-2(C12) to stabilize membrane protein complexes, spectra of the protein purified by each detergent were recorded as a function of time. The initial spectrum (t=0) was acquired directly after elution of the protein from affinity chromatography. The integrity of the LHI-RC superassembly solubilized by these relatively mild detergents was monitored quantitatively from a scatter-corrected absorbance ratio (A875/A680). The ratio of a sample of completely folded and functional supperassembly is >14.5, and this ratio declines dramatically as the multi-subunit complex disassembles and denatures.
Stability was monitored by following the 875 nm/680 nm absorption ratio over a two to three weeks (absorption at 680 nm arises from oxidation of bacteriochlorophyll that has dissociated from LHI protein).
Similar criteria and protocols were used to judge the ability of amphiphiles to maintain solubilized and purified superassembly for extended periods. In this case, UV Vis-nearIR spectra were recorded at regular intervals. The degradation of the material could be monitored with the A875/A680 absorbance ratio, which decreased with time and sample integrity as the dominant 875 nm absorption of intact LHI disappeared and a 680 nm band appeared, indicating the presence of unbound, oxidized cofactors.

Compound | solubilization of bovine rhodopsin [1] | stability of resulting protein solution (bovine rhodopsin) [1] | extraction of LHI-RC superassembly from R. capsulatus membranes [2] | critical micelle concentration (CMC) [3] | CMC [3] | CMC (%) [3] | solubilization of bacteriorhodopsin (bR) [4] | stability of resulting protein solution (bR) [4] | 875 nm/760 nm absorption ratio ([2]; solubilized protein from R. capsulatus membranes) | stability of solubilized LHI-RC superassembly [5]
CCCCC(CCCC)(CC(=O)NCCC[N+](C)(C)[O-])c1ccccc1 [TPA0, reference compound] | effectively solubilized | stable for several weeks | too harsh to be useful for the preparation of intact superassembly | 5.5 mM | 4.4 mM | 0.16% | effectively solubilized | stable for several weeks |  | 
CCCCC(CCCC)(CC(=O)NC(CO[C@H]1OC(CO)[C@H](O)C(O)[C@H]1O)CO[C@H]1OC(CO)[C@H](O)C(O)[C@H]1O)c1ccccc1 (some centres unmarked) [TPA2] |  |  | intact LHI-RC superassembly in high yield | 3.6 mM | 3.6 mM | 0.24% |  |  | ~8 | remains stable for several days
